The values that follow come from US10973789B2, “Compositions and methods for treating skin conditions using light and polycarboxylic acids” (Johnson & Johnson Consumer Inc., priority 2017, dated 2021).

This experiment relates to Propionibacterium acnes ATCC 6919.

Molecules are shown by their SMILES. Like-named read-outs stand apart in the source and are kept apart here. Where only a bound is given, the exact number is not on record here.

Experimental: The sample is then recovered onto agar and incubated 5-7 days until clear colonies are visible. […] The anti-P. acnes activity of various test treatments were compared. Anti-P. acnes activity was measured using the in vitro method described above. The test treatments comprised either 0.1 or 0.25 weight percent of succinic acid in reinforced clostridial media with and without the administration of 440 nm blue light. […] Non-control test samples were adjusted to a pH of 4.5.

For `O=C(O)CCC(=O)O` [Succinic Acid, Succinic acid (butanedioic acid)], the “antimicrobial activity of the combination relative to the expected additive reduction” value was “about 12,000 times” (0.1% succinic acid + light: 6.7 log reduction vs additive 2.6 log reduction) and “about 3 times” (0.25% succinic acid + light: 6.7 log reduction vs additive 6.2 log reduction). In addition, the “reduction of P. acnes bacterial count” value runs as follows: (0.1% succinic acid combined with light) 6.7 logs; (0.1% succinic acid, no light, compared to untreated control solution) 2 logs; (0.25% succinic acid combined with light) 6.7 logs; (0.25% succinic acid, no light, compared to untreated control solution) 5.6 logs. Moreover, the “Log 10 reduction vs Control Solution” value runs as follows: (0.1% succinic acid in reinforced clostridial media, pH 4.5, no light) 2.0 Log 10; (0.1% succinic acid, pH 4.5, + 440 nm blue light) more than 6.7 Log 10; (0.25% succinic acid in reinforced clostridial media, pH 4.5, no light) 5.6 Log 10; (0.25% succinic acid, pH 4.5, + 440 nm blue light) more than 6.7 Log 10.
